Consider one molecule from paper PMC6402482 (ACS chemical biology, 2018).

Series [1] concerns rat primary cortical neurons. As to the kind of experiment: Cytotoxicity in primary cortical neurons, LDH release at 24 h. The series is classed as cell-based. The following applies: n = 6/group. In general terms: LDH leaks from cells whose membrane has failed.
For series [2], the system named is primary cortical neurons. Kind of series: Oxygen-glucose deprivation. The format is cell-based, rat. The following applies: concentrations >100 nM.
The test system of series [3] is primary cortical neurons. As to the kind of experiment: Mitochondrial and cytosolic NAD+ 24 h after OGD. The format is cell-based, rat. The following applies: 10 nM, n = 6/group.
Series [4] can be described thus: Glutamate-induced ferroptotic cell death in HT22 cells, LDH release at 24 h. The series is classed as cell-based, mouse. Particulars: 5 mM glutamate, LDH at 24 h, n = 5/group.
Series [5] in a line: Comet tail intensity assay of DNA damage and repair after H2O2. The following applies: 10 µM, 200 µM H2O2, repair over 30 min. The format is cell-based, mouse.
For another series, the system named is cancer cell lines. The following applies: most cancer cell lines; cited from earlier work.
The next series has as its target active PARP1 enzyme (Homo sapiens, UniProt P09874). Kind of series: PARP1 enzyme inhibition ex vivo. The following applies: 0–100 nM on active PARP1 enzyme (10 U), triplicate.

Sequence of active PARP1 enzyme (P09874 whole entry): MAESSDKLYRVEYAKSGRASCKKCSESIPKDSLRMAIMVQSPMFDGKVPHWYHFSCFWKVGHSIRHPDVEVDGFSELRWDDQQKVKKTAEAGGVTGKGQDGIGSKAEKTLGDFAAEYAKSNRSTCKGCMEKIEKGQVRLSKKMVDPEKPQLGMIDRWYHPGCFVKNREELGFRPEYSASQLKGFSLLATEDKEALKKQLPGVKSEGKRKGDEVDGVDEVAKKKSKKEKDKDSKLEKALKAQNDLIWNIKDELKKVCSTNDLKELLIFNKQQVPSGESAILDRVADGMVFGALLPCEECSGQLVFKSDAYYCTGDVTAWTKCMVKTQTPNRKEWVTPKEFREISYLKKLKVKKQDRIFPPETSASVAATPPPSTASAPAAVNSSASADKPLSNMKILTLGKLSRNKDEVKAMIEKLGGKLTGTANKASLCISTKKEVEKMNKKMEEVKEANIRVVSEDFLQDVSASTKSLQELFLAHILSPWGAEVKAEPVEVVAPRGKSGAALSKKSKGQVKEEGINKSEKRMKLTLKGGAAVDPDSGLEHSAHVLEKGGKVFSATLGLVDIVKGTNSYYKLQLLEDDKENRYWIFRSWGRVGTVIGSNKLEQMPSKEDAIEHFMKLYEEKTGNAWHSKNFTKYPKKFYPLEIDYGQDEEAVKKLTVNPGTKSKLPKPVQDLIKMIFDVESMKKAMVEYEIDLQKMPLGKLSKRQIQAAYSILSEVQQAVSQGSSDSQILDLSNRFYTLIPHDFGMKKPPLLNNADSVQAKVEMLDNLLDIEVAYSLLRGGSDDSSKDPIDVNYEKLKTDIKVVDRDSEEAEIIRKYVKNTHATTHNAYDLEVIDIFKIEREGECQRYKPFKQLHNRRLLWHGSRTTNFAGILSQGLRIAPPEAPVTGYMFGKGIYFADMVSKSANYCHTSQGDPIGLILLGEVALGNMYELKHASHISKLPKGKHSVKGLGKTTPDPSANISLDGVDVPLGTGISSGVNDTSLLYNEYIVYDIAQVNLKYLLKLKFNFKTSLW

As for `C[C@@]1(c2nc3c(C(N)=O)cccc3[nH]2)CCCN1` [veliparib, 2-[(S)-2-methylpyrrolidin-2-yl]-1H-benzimidazole-4-carboxamide], in series [1], the “Concentration at which neurotoxicity (defined as >10% cell death) was seen” value came out at 1000 nM. In the series with primary cortical neurons [2], the “Protection against OGD at higher concentrations” value is “no additional protection”. Also, the “Mitochondrial NAD+ stores after OGD” value in the series on primary cortical neurons [3] is given as “preserved”. Besides, the “Inhibition of glutamate-induced ferroptosis” value in series [4] is “inhibit glutamate-induced ferroptosis”. Moreover, the “Effect on DNA repair after H2O2” value in series [5] is reported as “impeded DNA repair”. The Tumoricidal concentration with cancer cell lines is given as above 100 µM. For the same molecule, on active PARP1 enzyme, the “PARP1 inhibition, veliparib versus XJB-veliparib” value was “similar”.
